Literature values in paper PMC6428196 (Psychopharmacology, 2018).

Tests used:
[1] = in vivo
[2] = human, in vivo, sc
baboons = settings: ref Holtyn et al. 2017

| Brain penetration after systemic administration [1] | Bioavailability [2] | SMILES | Drinking (baboons) |
| --- | --- | --- | --- |
| penetrate the brain | 55% | CCCCCCCCCCCCCCCC(=O)N[C@@H](CCC(=O)NCCCC[C@H](NC(=O)[C@H](C)NC(=O)[C@H](C)NC(=O)[C@H](CCC(N)=O)NC(=O)CNC(=O)[C@H](CCC(=O)O)NC(=O)[C@H](CC(C)C)NC(=O)[C@H](Cc1ccc(O)cc1)NC(=O)[C@H](CO)NC(=O)[C@H](CO)NC(=O)[C@@H](NC(=O)[C@H](CC(=O)O)NC(=O)[C@H](CO)NC(=O)[C@@H](NC(=O)[C@H](Cc1ccccc1)NC(=O)[C@@H](NC(=O)CNC(=O)[C@H](CCC(=O)O)NC(=O)[C@H](C)NC(=O)[C@@H](N)Cc1cnc[nH]1)[C@@H](C)O)[C@@H](C)O)C(C)C)C(=O)N[C@@H](CCC(=O)O)C(=O)N[C@@H](Cc1ccccc1)C(=O)N[C@H](C(=O)N[C@@H](C)C(=O)N[C@@H](Cc1c[nH]c2ccccc12)C(=O)N[C@@H](CC(C)C)C(=O)N[C@H](C(=O)N[C@@H](CCCNC(=N)N)C(=O)NCC(=O)N[C@@H](CCCNC(=N)N)C(=O)NCC(=O)O)C(C)C)[C@@H](C)CC)C(=O)O [liraglutide] | – |
| – | – | O=C1CC[C@@]2(O)[C@H]3Cc4ccc(O)c5c4[C@@]2(CCN3CC2CC2)[C@H]1O5 [naltrexone] | reduced drinking to a degree comparable to our liraglutide effect |
